Measurements: patent US8729017B2 (priority 2011, dated 2014)
Like-named read-outs stand apart in the source and are kept apart here. Numbered stars: 1 amine (or outer) side, 2 acyl side, 3 side chain; on linkers, the order of the positions; unused ones are H or OH. Square brackets hold non-standard residues; d marks the D form. Side chains are listed from the residue outwards. Ends that are not written are not given here. Peptide text beside a SMILES is read from it. * marks the point of attachment. γGlu = O=C(O)[C@H](CCC(=O)[*:2])N[*:1]; Palmitoyl = CCCCCCCCCCCCCCCC(=O)*; Aib = CC(C)(N)C(=O)O

Experiments:
Format in all cases: cell-based
[1] = molecular target: T1, GLP-1 receptor (Homo sapiens, UniProt P43220); assay: cAMP induction, firefly luciferase reporter assay in HEK293 cells co-transfected with the GLP-1 receptor; details: HEK293 cells, cAMP-responsive luciferase reporter, 5 hours incubation
T1 construct: expressed in transfected cells; host or cells: HEK293
Protocol: (§1) The ability of each peptide to induce cAMP was measured in a firefly luciferase-based reporter assay. […] At the end of the incubation, 100 μL of LucLite luminescence substrate reagent (Perkin Elmer, Wellesley, Mass.) were added to each well. […] In some instances, the in vitro agonist activity at the GIP receptor was also tested.

[2] = molecular target: T2, GIP receptor (Homo sapiens, UniProt P48546); assay: in vitro agonist activity at the GIP receptor (cAMP luciferase reporter, HEK293 cells); details: in vitro agonist activity; for EC50: read-out: EC50 (nM) at GIP receptor
T2 construct: expressed in transfected cells; host or cells: HEK293
T2 sequence (P48546 22-466): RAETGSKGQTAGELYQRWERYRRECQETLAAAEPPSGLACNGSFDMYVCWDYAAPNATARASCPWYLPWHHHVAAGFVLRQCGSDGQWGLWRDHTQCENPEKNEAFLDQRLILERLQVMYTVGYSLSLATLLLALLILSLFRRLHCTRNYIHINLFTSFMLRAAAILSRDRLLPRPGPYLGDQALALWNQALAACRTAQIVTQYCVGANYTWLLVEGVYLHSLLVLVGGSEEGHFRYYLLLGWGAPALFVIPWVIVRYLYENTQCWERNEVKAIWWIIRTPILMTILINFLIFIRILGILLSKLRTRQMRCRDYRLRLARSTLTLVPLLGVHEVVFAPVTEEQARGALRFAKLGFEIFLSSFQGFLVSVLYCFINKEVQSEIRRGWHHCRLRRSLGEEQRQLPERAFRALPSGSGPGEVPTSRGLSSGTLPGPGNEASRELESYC
Protocol: as §1, with “It is understood that a lower EC50 indicates higher activity or potency at the receptor. […] The” for “The”

[3] = molecular target: T3, glucagon receptor (Homo sapiens, UniProt P47871); assay: cAMP induction, firefly luciferase reporter assay in HEK293 cells co-transfected with the glucagon receptor; details: HEK293 cells, cAMP-responsive luciferase reporter, 5 hours incubation
T3 construct: expressed in transfected cells; host or cells: HEK293
Protocol: as §1

[4] = read-out: EC50 (nM) at GLP-1 receptor
[5] = read-out: EC50 (nM) at glucagon receptor

T1 sequence (P43220 24-463): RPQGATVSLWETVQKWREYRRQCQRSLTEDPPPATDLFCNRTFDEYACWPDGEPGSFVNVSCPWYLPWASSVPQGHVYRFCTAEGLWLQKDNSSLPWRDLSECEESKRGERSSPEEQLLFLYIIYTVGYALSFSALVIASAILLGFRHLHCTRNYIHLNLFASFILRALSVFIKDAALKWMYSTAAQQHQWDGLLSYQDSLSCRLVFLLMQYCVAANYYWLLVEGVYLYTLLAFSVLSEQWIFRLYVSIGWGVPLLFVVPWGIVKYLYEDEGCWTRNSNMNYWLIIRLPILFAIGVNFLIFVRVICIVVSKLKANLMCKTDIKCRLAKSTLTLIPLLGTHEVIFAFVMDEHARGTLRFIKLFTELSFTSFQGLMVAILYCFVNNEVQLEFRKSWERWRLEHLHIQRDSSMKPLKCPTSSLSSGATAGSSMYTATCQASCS
T3 sequence (P47871 26-477, species assumed): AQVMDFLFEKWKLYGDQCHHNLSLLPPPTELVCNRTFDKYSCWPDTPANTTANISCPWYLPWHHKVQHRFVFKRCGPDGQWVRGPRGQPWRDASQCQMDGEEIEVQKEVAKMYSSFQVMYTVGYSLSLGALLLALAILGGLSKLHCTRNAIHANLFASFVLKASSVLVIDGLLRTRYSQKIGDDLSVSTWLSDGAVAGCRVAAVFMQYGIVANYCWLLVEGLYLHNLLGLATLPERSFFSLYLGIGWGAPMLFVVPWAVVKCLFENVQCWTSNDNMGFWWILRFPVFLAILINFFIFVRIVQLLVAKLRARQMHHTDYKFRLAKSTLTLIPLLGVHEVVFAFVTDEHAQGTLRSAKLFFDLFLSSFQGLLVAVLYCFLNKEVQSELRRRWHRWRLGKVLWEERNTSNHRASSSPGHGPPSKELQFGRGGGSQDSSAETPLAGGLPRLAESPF

`CCCCCCCCCCCCCCCC(=O)N[C@@H](CCC(=O)N[C@@H](CCC(=O)NCCCC[C@H](NC(=O)[C@H](CC(=O)O)NC(=O)[C@H](CO)NC(=O)[C@@H](NC(=O)[C@H](Cc1ccccc1)NC(=O)[C@@H](NC(=O)CNC(=O)[C@H](CCC(N)=O)NC(=O)C(C)(C)NC(=O)[C@@H](N)Cc1c[nH]cn1)[C@@H](C)O)[C@@H](C)O)C(=O)N[C@@H](CO)C(=O)N[C@@H](CCCCN)C(=O)N[C@@H](Cc1ccc(O)cc1)C(=O)N[C@@H](CC(C)C)C(=O)N[C@@H](CC(=O)O)C(=O)NC(C)(C)C(=O)N[C@@H](CCCNC(=N)N)C(=O)N[C@@H](C)C(=O)N[C@@H](C)C(=O)N[C@@H](CCC(N)=O)C(=O)N[C@@H](CC(=O)O)C(=O)N[C@@H](Cc1ccccc1)C(=O)N[C@H](C(=O)N[C@@H](CCC(N)=O)C(=O)N[C@@H](Cc1c[nH]c2ccccc12)C(=O)N[C@@H](CC(C)C)C(=O)N[C@@H](CCCCN)C(=O)NC(C)(C)C(=O)NCC(=O)N[C@@H](CCCNC(=N)N)C(=O)NCC(N)=O)C(C)C)C(=O)O)C(=O)O` [compound 26] (H-H[Aib]QGTFTSDK([γGlu-γGlu-Palmitoyl])SKYLD[Aib]RAAQDFVQWLK[Aib]GRG-NH2; N-terminus assumed) was tested, and the EC50 [1] was 0.004 nM, the EC50 [2] was 3.29 nM and the EC50 [3] was 0.106 nM.
In the case of “47 (H[Aib]QGTFTSDYSKYLDEKRA[Aib]EFVC(PEG 40 kDa)WLLDGGPSSGAPPPS-NH2) [compound 47]”, the “EC50 (nM) at GIP receptor” value [2] is reported as “no activity”.
In the case of `CCCCCCCCCCCCCCCC(=O)N[C@@H](CCC(=O)N[C@@H](CCC(=O)NCCCC[C@H](NC(=O)[C@H](CC(=O)O)NC(=O)[C@H](CO)NC(=O)[C@@H](NC(=O)[C@H](Cc1ccccc1)NC(=O)[C@@H](NC(=O)CNC(=O)[C@H](CCC(N)=O)NC(=O)C(C)(C)NC(=O)[C@@H](N)Cc1c[nH]cn1)[C@@H](C)O)[C@@H](C)O)C(=O)N[C@@H](CO)C(=O)N[C@@H](CCCCN)C(=O)N[C@@H](Cc1ccc(O)cc1)C(=O)N[C@@H](CC(C)C)C(=O)N[C@@H](CC(=O)O)C(=O)NC(C)(C)C(=O)N[C@@H](CCCNC(=N)N)C(=O)N[C@@H](C)C(=O)N[C@@H](C)C(=O)N[C@@H](CCC(N)=O)C(=O)N[C@@H](CC(=O)O)C(=O)N[C@@H](Cc1ccccc1)C(=O)N[C@H](C(=O)N[C@@H](CCC(N)=O)C(=O)N[C@@H](Cc1c[nH]c2ccccc12)C(=O)N[C@@H](CC(C)C)C(=O)N[C@@H](CCSC)C(=O)N[C@@H](CCCCN)C(=O)NCC(=O)N[C@@H](CCCNC(=N)N)C(=O)NCC(N)=O)C(C)C)C(=O)O)C(=O)O` [compound 23] (H-H[Aib]QGTFTSDK([γGlu-γGlu-Palmitoyl])SKYLD[Aib]RAAQDFVQWLMKGRG-NH2; N-terminus assumed), the EC50 [1] is reported as 0.004 nM, the EC50 [2] is reported as 1.58 nM and the EC50 [3] is reported as 0.023 nM.
`CCCCCCCCCCCCCCCC(=O)N[C@@H](CCC(=O)NCCCC[C@H](NC(=O)[C@H](CC(=O)O)NC(=O)[C@H](CO)NC(=O)[C@@H](NC(=O)[C@H](Cc1ccccc1)NC(=O)[C@@H](NC(=O)CNC(=O)[C@H](CCC(N)=O)NC(=O)[C@@H](CO)NC(=O)[C@@H](N)Cc1c[nH]cn1)[C@@H](C)O)[C@@H](C)O)C(=O)N[C@@H](CO)C(=O)N[C@@H](CCCCN)C(=O)N[C@@H](Cc1ccc(O)cc1)C(=O)N[C@@H](CC(C)C)C(=O)N[C@@H](CC(=O)O)C(=O)N[C@@H](CCC(=O)O)C(=O)N[C@@H](CCCNC(=N)N)C(=O)N[C@@H](C)C(=O)N[C@@H](C)C(=O)N[C@@H](CCC(N)=O)C(=O)N[C@@H](CC(=O)O)C(=O)N[C@@H](Cc1ccccc1)C(=O)N[C@H](C(=O)N[C@@H](CCC(N)=O)C(=O)N[C@@H](Cc1c[nH]c2ccccc12)C(=O)N[C@@H](CC(C)C)C(=O)N[C@@H](CC(C)C)C(=O)N[C@@H](CCCCN)C(=O)NCC(=O)N[C@@H](CCCNC(=N)N)C(=O)NCC(N)=O)C(C)C)C(=O)O` [compound 27] gave an EC50 [1] of 0.005 nM, an EC50 [2] of 2.12 nM and an EC50 [3] of 0.022 nM.
“52 (H[Aib]QGTFTSDYSKYLDEK[Aib]AKEFVC(PEG 40 kDa (thioether via iodoacetyl))WLLDT-NH2) [compound 52]” was tested, and the “EC50 (nM) at GIP receptor” value [2] was “no activity”.
`CC[C@H](C)[C@H](NC(=O)[C@H](Cc1ccccc1)NC(=O)[C@H](CC(C)C)NC(=O)[C@H](CCCNC(=N)N)NC(=O)[C@@H](NC(=O)[C@H](C)NC(=O)[C@H](CCC(N)=O)NC(=O)[C@H](CCC(=O)O)NC(=O)[C@H](CC(=O)O)NC(=O)[C@H](CC(C)C)NC(=O)[C@H](Cc1ccc(O)cc1)NC(=O)[C@H](CCCCN)NC(=O)[C@H](CO)NC(=O)[C@H](Cc1ccc(O)cc1)NC(=O)[C@H](CC(=O)O)NC(=O)[C@H](CO)NC(=O)[C@@H](NC(=O)[C@H](Cc1ccccc1)NC(=O)[C@@H](NC(=O)CNC(=O)[C@H](CCC(N)=O)NC(=O)[C@@H](CO)NC(=O)[C@@H](N)Cc1c[nH]cn1)[C@@H](C)O)[C@@H](C)O)C(C)C)C(=O)N[C@@H](CS)C(=O)N[C@@H](Cc1c[nH]c2ccccc12)C(=O)N[C@@H](CC(C)C)C(=O)N[C@@H](CC(C)C)C(=O)N[C@@H](CC(=O)O)C(=O)NCC(=O)NCC(=O)N1CCC[C@H]1C(=O)N[C@@H](CO)C(=O)N[C@@H](CO)C(=O)NCC(=O)N[C@@H](C)C(=O)N1CCC[C@H]1C(=O)N1CCC[C@H]1C(=O)N1CCC[C@H]1C(=O)N[C@@H](CO)C(N)=O` [compound 62] (H-H[dS]QGTFTSDYSKYLDEQAVRLFICWLLDGGPSSGAPPPS-NH2; N-terminus assumed) gave an EC50 [1, 4] of 0.006 nM and an EC50 [3, 5] of 0.132 nM.
`CCCCCCCCCCCCCCCC(=O)N[C@@H](CCC(=O)NCCCC[C@H](NC(=O)[C@H](CC(=O)O)NC(=O)[C@H](CO)NC(=O)[C@@H](NC(=O)[C@H](Cc1ccccc1)NC(=O)[C@@H](NC(=O)CNC(=O)[C@H](CCC(N)=O)NC(=O)[C@@H](CO)NC(=O)[C@@H](N)Cc1c[nH]cn1)[C@@H](C)O)[C@@H](C)O)C(=O)N[C@@H](CO)C(=O)N[C@@H](CCCCN)C(=O)N[C@@H](Cc1ccc(O)cc1)C(=O)N[C@@H](CC(C)C)C(=O)N[C@@H](CC(=O)O)C(=O)N[C@@H](CCC(=O)O)C(=O)N[C@@H](CCC(N)=O)C(=O)N[C@@H](C)C(=O)N[C@@H](C)C(=O)N[C@@H](CCCCN)C(=O)N[C@@H](CCC(=O)O)C(=O)N[C@@H](Cc1ccccc1)C(=O)N[C@H](C(=O)N[C@@H](CS)C(=O)N[C@@H](Cc1c[nH]c2ccccc12)C(=O)N[C@@H](CC(C)C)C(=O)N[C@@H](CC(C)C)C(=O)N[C@@H](CC(=O)O)C(=O)N[C@H](C(N)=O)[C@@H](C)O)[C@@H](C)CC)C(=O)O` [compound 64] gave an EC50 [1, 4] of 0.012 nM and an EC50 [3, 5] of 0.009 nM.
“13 (H[Aib]QGTFTSDYSKYLDEKRA[Aib]EFVC(PEG 40 kDa)WLLDT-NH2) [compound 13]” was tested, and the “EC50 (nM) at GIP receptor” value [2] was “no activity”.
“45 (H[Aib]QGTFTSDYSKYLDEKRA[Aib]EFVC(PEG 40 kDa)WLLDT-OH) [compound 45]” was tested, and the “EC50 (nM) at GIP receptor” value [2] was “no activity”.
In the case of “41 (H[Aib]QGTFTSDYSKYLDEKRA[Aib]EFVC(PEG 40 kDa)WLL[Aib]T-NH2) [compound 41]”, the “EC50 (nM) at GIP receptor” value [2] is reported as “no activity”.
For “46 (H[Aib]QGTFTSDYSKYLD[Aib]KRA[Aib]EFVC(PEG 40 kDa)WLLDGGPSSGAPPPS-NH2) [compound 46]”, the “EC50 (nM) at GIP receptor” value [2] was “no activity”.
For “38 (H[Aib]QGTFTSDYSKYLD[Aib]KRA[Aib]EFVC(PEG 40 kDa)WLLDT-NH2) [compound 38]”, the “EC50 (nM) at GIP receptor” value [2] was “no activity”.
With “51 (H[Aib]QGTFTSDYSKYLDEKRA[Aib]EFVC(PEG 40 kDa (thioether via iodoacetyl))WLL[Aib]GGPSSGAPPPS-NH2) [compound 51]” the “EC50 (nM) at GIP receptor” value [2] was “no activity”.
Compound `CCCCCCCCCCCCCCCC(=O)N[C@@H](CCC(=O)NCCCC[C@H](NC(=O)[C@H](CC(=O)O)NC(=O)[C@H](CO)NC(=O)[C@@H](NC(=O)[C@H](Cc1ccccc1)NC(=O)[C@@H](NC(=O)CNC(=O)[C@H](CCC(N)=O)NC(=O)[C@@H](CO)NC(=O)[C@@H](N)Cc1c[nH]cn1)[C@@H](C)O)[C@@H](C)O)C(=O)N[C@@H](CO)C(=O)N[C@@H](CCCCN)C(=O)N[C@@H](Cc1ccc(O)cc1)C(=O)N[C@@H](CC(C)C)C(=O)N[C@@H](CC(=O)O)C(=O)N[C@@H](CCC(=O)O)C(=O)N[C@@H](CCC(N)=O)C(=O)N[C@@H](C)C(=O)N[C@@H](C)C(=O)N[C@@H](CCCCN)C(=O)N[C@@H](CCC(=O)O)C(=O)N[C@@H](Cc1ccccc1)C(=O)N[C@H](C(=O)N[C@@H](CS)C(=O)N[C@@H](Cc1c[nH]c2ccccc12)C(=O)N[C@@H](CC(C)C)C(=O)N[C@@H](CC(C)C)C(=O)N[C@@H](CC(=O)O)C(=O)N[C@H](C(=O)N[C@@H](CCC(=O)O)C(N)=O)[C@@H](C)O)[C@@H](C)CC)C(=O)O` [compound 65] has an EC50 [1, 4] of 0.024 nM and an EC50 [3, 5] of 0.028 nM.
